# Laboratory results: paper PMC4879574, “Identification of Leishmania donovani Topoisomerase 1 inhibitors via intuitive scaffold hopping and bioisosteric modification of known Top 1 inhibitors” (Scientific Reports, 2016)
# “And” between values parts separate entries of the source, which are not always exact repeats. Equal values may be shown once. Read-outs that look alike come from different tables or passages of the source.
# Experiments:
# [1] = target: T1, Human Top1 (HTop1) (Homo sapiens, UniProt P11387); test: Plasmid DNA relaxation assay, HTop1; type: biochemical; settings: averages of three experiments, read-out: HTop1 inhibition (EC50)
# T1 construct: made in house; host or cells: Sf-9 insect cells infected with recombinant baculovirus (gift from Prof. J. J. Champoux)
# T1 sequence (P11387 1-765): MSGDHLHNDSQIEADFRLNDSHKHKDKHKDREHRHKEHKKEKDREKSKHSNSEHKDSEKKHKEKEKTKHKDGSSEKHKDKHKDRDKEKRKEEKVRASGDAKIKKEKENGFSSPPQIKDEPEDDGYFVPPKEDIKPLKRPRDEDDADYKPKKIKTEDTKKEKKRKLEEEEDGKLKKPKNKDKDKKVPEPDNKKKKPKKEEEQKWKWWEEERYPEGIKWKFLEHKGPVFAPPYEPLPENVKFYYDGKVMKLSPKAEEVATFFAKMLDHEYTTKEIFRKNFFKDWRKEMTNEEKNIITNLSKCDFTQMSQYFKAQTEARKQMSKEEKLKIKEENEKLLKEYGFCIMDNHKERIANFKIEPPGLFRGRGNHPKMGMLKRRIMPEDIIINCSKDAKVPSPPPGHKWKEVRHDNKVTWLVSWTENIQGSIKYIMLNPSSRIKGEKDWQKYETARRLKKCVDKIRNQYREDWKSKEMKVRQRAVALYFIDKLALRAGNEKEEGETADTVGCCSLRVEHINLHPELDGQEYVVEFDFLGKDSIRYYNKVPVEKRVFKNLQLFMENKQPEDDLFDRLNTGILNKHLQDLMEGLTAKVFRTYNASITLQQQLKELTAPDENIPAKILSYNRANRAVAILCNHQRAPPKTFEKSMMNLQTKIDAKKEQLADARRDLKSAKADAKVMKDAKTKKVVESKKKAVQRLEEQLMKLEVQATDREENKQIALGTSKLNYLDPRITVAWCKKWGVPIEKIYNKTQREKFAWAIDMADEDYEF
# Protocol: (§1) To investigate the inhibitory effect of our library compounds on the DNA relaxation activity of the recombinant Human and Leishmania topoisomerase 1 (Table 2), assays were performed involving supercoiled plasmid DNA, the enzymes (HTop1 and LdTop1) and our molecules. The enzymes were purified by the standard literature procedure.
# (§2) The type I DNA topoisomerase are assayed by decreased mobility of the relaxed isomers of supercoiled pBS (SK^+) [pBlue-script (SK^+)] DNA in agarose gel. The relaxation assay was carried out as described previously with LdTop1B and HTop I, diluted in the relaxation buffer (25 mM Tris–HCl, pH 7.5, 5% glycerol, 0.5 mM DTT, 10 mM MgCl2, 50 mM KCl, […] and […] BSA) and supercoiled plasmid pBS (SK^+) DNA (85–95% were negatively supercoiled, with remainder being nicked circles)[9][28][29]. The reconstituted enzyme LdTop1B was assayed at 50 mM KCl concentration as described before. For all kinetic studies, the reaction mixtures containing the buffer and DNA were heated to 37 °C before addition of the enzymes. The reactions were rapidly quenched using stop solution and kept on ice. The gels were stained with ethidium bromide (EtBr) ([…]) and the amount of supercoiled monomer DNA band fluorescence were quantified by integration using Gel Doc 2000 under UV illumination (Bio-Rad Quantity One Software), as described previously.
# The wild-type HTop1 (91 kDa) was purified from Sf-9 insect cells infected with the recombinant baculovirus (a kind gift from Prof. J. J. Champoux). Approximately, 1 * 10^9 Sf-9 cells were infected with the recombinant virus, and cells were harvested after 48-h of infection. The cells were lysed and enzyme was purified as described. Briefly, at 48 h post-infection, approximately 3 * 10^9 Sf-9 cells were harvested by centrifugation for 5 min at 400 * g. The cells were resuspended in 1 liter of ice-cold phosphate-buffered saline and centrifuged for 5 min at 400 * g. The nuclei were washed twice in 80 ml of lysis buffer minus Triton X-100 and resuspended in 40 ml of resuspension buffer (50 mM KCl, 10 mM Tris-Cl, pH 7.5, 2 mM MgCl2, 25 mM DTT, 0.4 mg/ml phenylmethylsulfonyl fluoride, 0.12 mg/ml aprotinin). The nuclear extract was stirred for 5 min at ~200 rpm. With continued stirring, 50 ml of polyethylene glycol (PEG) buffer (18% PEG 8000, 1 M NaCl, 10% glycerol) was added dropwise in order to precipitate the DNA. The PEG precipitate was pelleted by centrifugation and the resulting PEG supernatant was dialyzed against 4 liters of potassium phosphate buffer. The dialyzed PEG supernatant passed over a 10-ml bed volume of phosphocellulose (Whatman P11) equilibrated with PPB. The HTop1 flowed through the PS column and then passed over a Mono Q column followed by loaded onto a Mono S column. The Mono S column was eluted with a 25-ml 50–200 mM KPO4, pH 7.4, gradient. […] The peak Mono S fractions were pooled, concentrated with an Amicon ultrafiltration cell, dialyzed into storage buffer (50% glycerol, 10 mM Tris-hydrochloride, pH 7.5, 1 mM DTT, 1 mM EDTA), and stored at −20 °C.
# [2] = target: Leishmania donovani Topoisomerase 1 (LdTop1) (Leishmania donovani, UniProt A0A3Q8IHS4+Q8WQM6); test: Plasmid DNA relaxation assay, LdTop1 (simultaneous incubation); type: biochemical
# Sequence of Leishmania donovani Topoisomerase 1 (LdTop1) (Q8WQM6 entry or part of it): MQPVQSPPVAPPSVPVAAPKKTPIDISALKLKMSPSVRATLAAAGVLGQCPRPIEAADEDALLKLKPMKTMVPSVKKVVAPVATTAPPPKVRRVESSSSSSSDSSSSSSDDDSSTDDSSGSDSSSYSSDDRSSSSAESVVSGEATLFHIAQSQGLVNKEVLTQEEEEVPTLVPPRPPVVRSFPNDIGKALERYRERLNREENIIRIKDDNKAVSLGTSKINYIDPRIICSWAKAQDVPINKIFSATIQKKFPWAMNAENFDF
# Sequence of Leishmania donovani Topoisomerase 1 (LdTop1) (A0A3Q8IHS4 entry or part of it): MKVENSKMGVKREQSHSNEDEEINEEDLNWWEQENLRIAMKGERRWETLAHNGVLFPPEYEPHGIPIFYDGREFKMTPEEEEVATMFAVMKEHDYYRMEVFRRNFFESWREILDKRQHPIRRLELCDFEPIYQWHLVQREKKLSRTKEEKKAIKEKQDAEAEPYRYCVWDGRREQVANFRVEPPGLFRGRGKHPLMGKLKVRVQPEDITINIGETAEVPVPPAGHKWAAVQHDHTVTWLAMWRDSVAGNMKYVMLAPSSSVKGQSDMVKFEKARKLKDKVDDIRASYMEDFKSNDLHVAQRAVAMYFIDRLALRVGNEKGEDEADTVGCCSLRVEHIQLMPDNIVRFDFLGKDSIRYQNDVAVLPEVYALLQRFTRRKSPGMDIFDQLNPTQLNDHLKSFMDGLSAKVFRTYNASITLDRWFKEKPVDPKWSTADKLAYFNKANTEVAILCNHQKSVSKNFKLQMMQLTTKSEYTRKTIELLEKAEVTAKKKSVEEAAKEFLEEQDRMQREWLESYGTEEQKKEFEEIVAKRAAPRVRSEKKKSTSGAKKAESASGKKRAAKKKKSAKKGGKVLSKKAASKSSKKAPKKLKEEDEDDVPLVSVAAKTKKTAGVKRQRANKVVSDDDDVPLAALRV
# Protocol: as §1
# All the experiments were conducted thrice and representative data from once set of them are expressed as mean ± SD.
# as §2
# Cells harvested from 1 litre of culture were separately lysed by lysozyme/sonication, and the proteins were purified through Ni-NTA (Ni^2+-nitriloacetate-agarose column (Qiagen, Hilden, Germany) followed by a phospho-cellulose column (P11 cellulose; Whatman, Maidstone Kent, UK) as described previously. Finally, the purified proteins LdTOP1L and LdTOP1S were stored at −70 °C. The concentrations of each protein were quantified by using Bradford Reagent (PIERCE, Thermo Fisher Scientific Inc., Rockford, USA). Purified LdTOP1L was mixed with purified LdTOP1S at a molar ratio of 1:1 to a total protein concentration of 0.5 mg/ml in reconstitution buffer [50 mM potassium phosphate, pH 7.5, 0.5 mM DTT, 1 mM EDTA, 0.1 mM PMSF and 10% (v/v) glycerol]. The mixture was dialyzed overnight at 4 °C and dialyzed fractions were used for plasmid relaxation activity.
# [3] = LdTop1 relaxation, 12.5 uM, read-out: % inhibition, mean data
# [4] = LdTop1 relaxation, 25 uM, read-out: % inhibition, mean data
# [5] = LdTop1 relaxation, 50 uM, read-out: % inhibition, mean data
# [6] = LdTop1 relaxation, 100 uM, read-out: % inhibition, mean data
# [7] = plasmid DNA relaxation, averages of three experiments, read-out: LDTop1 inhibition (EC50)
# [8] = read-out: % inhibition (CPT 100%), data 1, LdTop1 relaxation, 12.5 uM
# [9] = read-out: % inhibition (CPT 100%), data 1, LdTop1 relaxation, 25 uM
# [10] = read-out: % inhibition (CPT 100%), data 1, LdTop1 relaxation, 50 uM
# [11] = read-out: % inhibition (CPT 100%), data 1, LdTop1 relaxation, 100 uM
# [12] = read-out: % inhibition (CPT 100%), data 2, LdTop1 relaxation, 12.5 uM
# [13] = read-out: % inhibition (CPT 100%), data 2, LdTop1 relaxation, 25 uM
# [14] = read-out: % inhibition (CPT 100%), data 2, LdTop1 relaxation, 50 uM
# [15] = read-out: % inhibition (CPT 100%), data 2, LdTop1 relaxation, 100 uM
# [16] = supplement sheet Ld Top 1 data, concentrations in uM, read-out: EC50 (LdTop1, supplement sheet)
smiles,measurement,setting,value
COc1ccc(/C=C2\OC(=O)c3c2cc(C)[nH]c3=O)c(C)c1C [Compound 2],EC50,[1],> 100 µM
same,inhibition at 12.5 µM,[2]; [3],50.1%
same,inhibition at 25 µM,[2]; [4],65.2%
same,inhibition at 50 µM,[2]; [5],85.1%
same,inhibition at 100 µM,[2]; [6],99.5%
same,LdTop1 inhibitory activity,[2]; plasmid DNA relaxation,considerable activity
same,EC50,[2]; [7],10 µM and 10.1 µM
same,inhibition at 12.5 µM,[2]; [8],50.1%
same,inhibition at 25 µM,[2]; [9],66.8%
same,inhibition at 50 µM,[2]; [10],85.8%
same,inhibition at 100 µM,[2]; [11],100%
same,inhibition at 12.5 µM,[2]; [12],50.1%
same,inhibition at 25 µM,[2]; [13],63.7%
same,inhibition at 50 µM,[2]; [14],84.4%
same,inhibition at 100 µM,[2]; [15],98.9%
same,EC50,[2]; [16],10.2 µM
Cc1cc2c(c(=O)[nH]1)C(=O)O/C2=C\c1ccccc1C(F)(F)F [Compound 3],EC50,[1],> 100 µM
same,inhibition at 12.5 µM,[2]; [3],52.5%
same,inhibition at 25 µM,[2]; [4],67.3%
same,inhibition at 50 µM,[2]; [5],87.5%
same,inhibition at 100 µM,[2]; [6],91.3%
same,LdTop1 inhibitory activity,[2]; plasmid DNA relaxation,considerable activity
same,EC50,[2]; [7],9.06 ± 1.77 µM
same,inhibition at 12.5 µM,[2]; [8],51.2%
same,inhibition at 25 µM,[2]; [9],68.8%
same,inhibition at 50 µM,[2]; [10],88.7%
same,inhibition at 100 µM,[2]; [11],93.7%
same,inhibition at 12.5 µM,[2]; [12],53.7%
same,inhibition at 25 µM,[2]; [13],65.8%
same,inhibition at 50 µM,[2]; [14],86.2%
same,inhibition at 100 µM,[2]; [15],88.9%
same,EC50,[2]; [16],9.06 µM
Cc1cc2c(c(=O)[nH]1)C(=O)O/C2=C\c1c[nH]c2ccccc12 [Compound 5],EC50,[1],> 100 µM
same,LdTop1 inhibitory activity,[2]; plasmid DNA relaxation,no inhibitory activity at all
same,EC50,[2]; [7],> 100 µM
Cc1cc2c(c(=O)[nH]1)C(=O)O/C2=C\c1ccc2c(c1)OCO2 [Compound 6],EC50,[1],> 100 µM
same,LdTop1 inhibitory activity,[2]; plasmid DNA relaxation,complete loss of activity
same,EC50,[2]; [7],> 100 µM
Cc1cc2c(c(=O)[nH]1)C(=O)O/C2=C\c1ccc(F)c(F)c1 [Compound 8],EC50,[1],> 100 µM
same,LdTop1 inhibitory activity,[2]; plasmid DNA relaxation,complete loss of activity
same,EC50,[2]; [7],> 100 µM
Cc1cc2c(c(=O)[nH]1)C(=O)O/C2=C\c1cccc(Br)c1 [Compound 9],EC50,[1],> 100 µM
same,inhibition at 12.5 µM,[2]; [3],52.2%
same,inhibition at 25 µM,[2]; [4],68.2%
same,inhibition at 50 µM,[2]; [5],88.4%
same,inhibition at 100 µM,[2]; [6],93%
same,LdTop1 inhibitory activity,[2]; plasmid DNA relaxation,considerable activity
same,EC50,[2]; [7],7.51 ± 1.02 µM
same,inhibition at 12.5 µM,[2]; [8],52.9%
same,inhibition at 25 µM,[2]; [9],69.6%
same,inhibition at 50 µM,[2]; [10],89.7%
same,inhibition at 100 µM,[2]; [11],95.5%
same,inhibition at 12.5 µM,[2]; [12],51.4%
same,inhibition at 25 µM,[2]; [13],66.8%
same,inhibition at 50 µM,[2]; [14],87.2%
same,inhibition at 100 µM,[2]; [15],90.5%
same,EC50,[2]; [16],7.51 µM
Cc1cc2c(c(=O)[nH]1)C(=O)O/C2=C\c1ccc(Br)cc1 [Compound 10],EC50,[1],> 100 µM
same,EC50,[2]; [7],> 100 µM
Cc1cc2c(c(=O)[nH]1)C(=O)O/C2=C\c1cccc2ccccc12 [Compound 11],EC50,[1],> 100 µM
same,LdTop1 inhibitory activity,[2]; plasmid DNA relaxation,no inhibitory activity at all
same,EC50,[2]; [7],> 100 µM
COc1cccc(/C=C2\OC(=O)c3c2cc(C)[nH]c3=O)c1OC [Compound 12],EC50,[1],> 100 µM
same,LdTop1 inhibitory activity,[2]; plasmid DNA relaxation,inactive
same,EC50,[2]; [7],> 100 µM
Cc1cc2c(c(=O)[nH]1)C(=O)O/C2=C\c1ccccc1 [Compound 13],EC50,[1],> 100 µM
same,EC50,[2]; [7],> 100 µM
Cc1cc2c(c(=O)[nH]1)C(=O)O/C2=C\c1cccc(Cl)c1 [Compound 14],EC50,[1],> 100 µM
same,"% inhibition (CPT 100%), data 1","[2]; LdTop1 relaxation, 12.5 uM",32.026%
same,inhibition at 12.5 µM,[2]; [3],30.6%
same,"% inhibition (CPT 100%), data 1","[2]; LdTop1 relaxation, 25 uM",46.8807%
same,inhibition at 25 µM,[2]; [4],48.1%
same,"% inhibition, mean data","[2]; LdTop1 relaxation, 50 uM",61.4846%
same,inhibition at 50 µM,[2]; [5],61.5%
same,"% inhibition (CPT 100%), data 1","[2]; LdTop1 relaxation, 100 uM",88.2434%
same,"% inhibition (CPT 100%), data 2","[2]; LdTop1 relaxation, 100 uM",86.2086%
same,"% inhibition, mean data","[2]; LdTop1 relaxation, 100 uM",87.226%
same,inhibition at 100 µM,[2]; [6],87.2%
same,LdTop1 inhibitory activity,[2]; plasmid DNA relaxation,considerable activity
same,inhibition at 12.5 µM,[2]; [8],32%
same,inhibition at 25 µM,[2]; [9],46.9%
same,inhibition at 50 µM,[2]; [10],58.6%
same,inhibition at 100 µM,[2]; [11],88.2%
same,inhibition at 12.5 µM,[2]; [12],29.1%
same,inhibition at 25 µM,[2]; [13],49.4%
same,inhibition at 50 µM,[2]; [14],64.3%
same,inhibition at 100 µM,[2]; [15],86.2%
same,EC50,[2]; [16],35.6 µM
